Assay results from PMC7749003 (SLAS discovery : advancing life sciences R & D, 2020).
pIC50: −log10 of the molar value.

Biological target: nCDase (Homo sapiens, UniProt Q9NR71)
Assay: manual RBM-ceramide assay with fresh compounds
Type: biochemical
Settings: dose titration

Chain of nCDase (Q9NR71 99-780 limits assumed): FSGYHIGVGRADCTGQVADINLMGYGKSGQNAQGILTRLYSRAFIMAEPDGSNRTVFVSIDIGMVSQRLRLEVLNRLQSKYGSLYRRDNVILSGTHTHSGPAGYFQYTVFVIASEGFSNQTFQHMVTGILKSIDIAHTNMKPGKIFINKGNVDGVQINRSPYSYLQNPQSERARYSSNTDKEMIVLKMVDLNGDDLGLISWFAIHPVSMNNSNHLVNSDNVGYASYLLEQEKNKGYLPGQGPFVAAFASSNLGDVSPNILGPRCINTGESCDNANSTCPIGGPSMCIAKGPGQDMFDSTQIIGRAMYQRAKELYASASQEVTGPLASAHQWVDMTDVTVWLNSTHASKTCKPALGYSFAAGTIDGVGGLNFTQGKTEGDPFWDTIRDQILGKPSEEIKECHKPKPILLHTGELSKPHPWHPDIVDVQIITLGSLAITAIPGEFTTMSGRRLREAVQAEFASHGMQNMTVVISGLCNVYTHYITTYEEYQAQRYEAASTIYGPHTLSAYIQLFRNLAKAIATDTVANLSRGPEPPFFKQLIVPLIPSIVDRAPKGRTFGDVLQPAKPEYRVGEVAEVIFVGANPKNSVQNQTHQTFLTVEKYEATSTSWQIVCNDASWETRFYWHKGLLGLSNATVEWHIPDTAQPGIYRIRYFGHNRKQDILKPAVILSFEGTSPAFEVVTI

CC(/C=C/C(=O)NO)=C\[C@@H](C)C(=O)c1ccc(N(C)C)cc1 [TSA, Trichostatin A]
pIC50: 5.40
